Test results published in ChEMBL document CHEMBL1201862, “PubChem BioAssay data set” (2004).
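Assay format: 96-well plates, 48-hour exposure. Here, GI50 denotes the concentration required for 50% inhibition of growth.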 Active and inactive are the calls of the source. Cut-off read from the data, not from the text of the source: active = GI50 up to about 1.1 µM and inactive = higher.

How the values were obtained:
Test in all cases: DTP human tumour cell line panel, 48 h
[1] = system: MOLT-4
[2] = system: MDA-N
[3] = system: U-251
[4] = system: NCI-H23
[5] = system: SW-620
[6] = system: EKVX
[7] = system: SNB-75
[8] = system: COLO 205
[9] = system: TK-10
[10] = system: KM12
[11] = system: LOX IMVI
[12] = system: ACHN
[13] = system: HL-60
[14] = system: T47D
[15] = system: HT-29
[16] = system: SK-OV-3
[17] = system: SNB-19
[18] = system: CAKI-1
[19] = system: K562
[20] = system: UACC-62

COC(=O)CCC(=O)NC1=C(Nc2ccc(OC)cc2)C(=O)c2ccccc2C1=O was tested. Which GI50 [1] did it give?
The GI50 was 15.7 µM (inactive).

And the GI50 [2]?
The GI50 was 1.81 µM (inactive).

What about the GI50 [3] of the same compound?
The GI50 was 16.5 µM (inactive).

What about the GI50 [4] of the same compound?
The GI50 was 6.34 µM (inactive).

What about the GI50 [5] of the same compound?
Its GI50 is 15.3 µM (inactive).

And the GI50 [6]?
Its GI50 is 17.7 µM (inactive).

What about the GI50 [7] of the same compound?
Its GI50 is 2.52 µM (inactive).

What about the GI50 [8] of the same compound?
Its GI50 is 14.5 µM (inactive).

And the GI50 [9]?
The GI50 was 32.7 µM (inactive).

What about the GI50 [10] of the same compound?
Its GI50 is 14.3 µM (inactive).

And the GI50 [11]?
The GI50 was 4.15 µM (inactive).

And the GI50 [12]?
The GI50 was 15.4 µM (inactive).

And the GI50 [13]?
The GI50 was 10.8 µM (inactive).

What about the GI50 [14] of the same compound?
Its GI50 is 14.6 µM (inactive).

What about the GI50 [15] of the same compound?
Its GI50 is 12.6 µM (inactive).

What about the GI50 [16] of the same compound?
Its GI50 is 23.7 µM (inactive).

And the GI50 [17]?
The GI50 was 17.8 µM (inactive).

And the GI50 [18]?
The GI50 was 16.9 µM (inactive).

What about the GI50 [19] of the same compound?
The GI50 was 23.9 µM (inactive).

What about the GI50 [20] of the same compound?
Its GI50 is 3.16 µM (inactive).

With CCCC(=O)Nc1cn(COC)c(C(=O)N2C[C@@H]3C[C@]34C2=CC(=O)c2[nH]cc(C)c24)n1 as the compound, how does the GI50 [1] read?
Its GI50 is 0.857 µM (active).

And the GI50 [2]?
The GI50 was 9.29 µM (inactive).

What about the GI50 [3] of the same compound?
The GI50 was 12.9 µM (inactive).

And the GI50 [4]?
Its GI50 is 2.9 µM (inactive).

What about the GI50 [5] of the same compound?
The GI50 was 5.58 µM (inactive).

What about the GI50 [6] of the same compound?
The GI50 was > 5 µM (inactive).

What about the GI50 [7] of the same compound?
Its GI50 is 10.2 µM (inactive).

What about the GI50 [8] of the same compound?
Its GI50 is 7.91 µM (inactive).

What about the GI50 [9] of the same compound?
Its GI50 is 7.96 µM (inactive).

And the GI50 [10]?
Its GI50 is > 5 µM (inactive).

And the GI50 [11]?
The GI50 was 6.31 µM (inactive).

What about the GI50 [12] of the same compound?
The GI50 was 3.26 µM (inactive).

What about the GI50 [13] of the same compound?
The GI50 was 1.07 µM (active).

And the GI50 [14]?
The GI50 was 4.85 µM (inactive).

And the GI50 [15]?
The GI50 was 7.76 µM (inactive).

And the GI50 [16]?
Its GI50 is 11.2 µM (inactive).

And the GI50 [17]?
The GI50 was 18.5 µM (inactive).

What about the GI50 [18] of the same compound?
The GI50 was 1.91 µM (inactive).

And the GI50 [19]?
The GI50 was 4.35 µM (inactive).

What about the GI50 [20] of the same compound?
The GI50 was 7.62 µM (inactive).

Which results are given for C/C=C/C(C#N)(Cc1ccccc1)OP1(=O)OC(c2ccccc2)C(C)N1C (configuration not stated)?
GI50 [1]: 21.2 µM (inactive); GI50 [2]: 88.1 µM (inactive); GI50 [3]: 88.5 µM (inactive); GI50 [4]: 87.3 µM (inactive); GI50 [5]: > 100 µM (inactive); GI50 [6]: 71.6 µM (inactive); GI50 [7]: > 100 µM (inactive); GI50 [8]: > 100 µM (inactive); GI50 [9]: > 100 µM (inactive); GI50 [10]: 45.6 µM (inactive); GI50 [11]: 44.1 µM (inactive); GI50 [12]: 84.1 µM (inactive); GI50 [13]: 17 µM (inactive); GI50 [14]: 47.9 µM (inactive); GI50 [15]: 69.2 µM (inactive); GI50 [16]: > 100 µM (inactive); GI50 [17]: 78.5 µM (inactive); GI50 [18]: > 100 µM (inactive); GI50 [19]: 38.5 µM (inactive); GI50 [20]: 56.5 µM (inactive)

Which results are given for O=C1CCSc2nc(-c3ccc4c(c3)OCO4)nn21?
GI50 [1]: > 10 µM (inactive); GI50 [2]: > 10 µM (inactive); GI50 [3]: > 10 µM (inactive); GI50 [4]: > 10 µM (inactive); GI50 [5]: > 10 µM (inactive); GI50 [6]: > 10 µM (inactive); GI50 [7]: > 10 µM (inactive); GI50 [8]: > 10 µM (inactive); GI50 [9]: > 10 µM (inactive); GI50 [10]: > 10 µM (inactive); GI50 [11]: > 10 µM (inactive); GI50 [12]: > 10 µM (inactive); GI50 [13]: > 10 µM (inactive); GI50 [14]: > 10 µM (inactive); GI50 [15]: > 10 µM (inactive); GI50 [16]: > 10 µM (inactive); GI50 [17]: > 10 µM (inactive); GI50 [18]: > 10 µM (inactive); GI50 [19]: > 10 µM (inactive); GI50 [20]: > 10 µM (inactive)

Which results are given for COC(=O)c1c(O)ccc2c1c1c(n2Cc2ccc(OC)cc2)C(=O)c2ccccc2C1=O?
GI50 [1]: 0.139 µM (active); GI50 [2]: 12.5 µM (inactive); GI50 [3]: 8.67 µM (inactive); GI50 [4]: 11 µM (inactive); GI50 [5]: 18.6 µM (inactive); GI50 [6]: 35.3 µM (inactive); GI50 [7]: 15.1 µM (inactive); GI50 [8]: 1.84 µM (inactive); GI50 [9]: 45.7 µM (inactive); GI50 [10]: 15.6 µM (inactive); GI50 [11]: 5.85 µM (inactive); GI50 [12]: 2.62 µM (inactive); GI50 [13]: 0.308 µM (active); GI50 [14]: 6.78 µM (inactive); GI50 [15]: 3.09 µM (inactive); GI50 [16]: 15.6 µM (inactive); GI50 [17]: 22.5 µM (inactive); GI50 [18]: 29.4 µM (inactive); GI50 [19]: 3.28 µM (inactive)

What does the source list for O=c1[nH]c(=O)n(C2CC(O)C(COP(=O)(O)OC3CC(n4cc(F)c(=O)[nH]c4=O)OC3COP(=O)(O)OC3CC(n4cc(F)c(=O)[nH]c4=O)OC3COP(=O)(O)OC3CC(n4cc(F)c(=O)[nH]c4=O)OC3COP(=O)(O)OC3CC(n4cc(F)c(=O)[nH]c4=O)OC3COP(=O)(O)OC3CC(n4cc(F)c(=O)[nH]c4=O)OC3COP(=O)(O)OC3CC(n4cc(F)c(=O)[nH]c4=O)OC3COP(=O)(O)OC3CC(n4cc(F)c(=O)[nH]c4=O)OC3COP(=O)(O)OC3CC(n4cc(F)c(=O)[nH]c4=O)OC3COP(=O)(O)OC3CC(n4cc(F)c(=O)[nH]c4=O)OC3CO)O2)cc1F (configuration not stated)?
GI50 [1]: 0.0052 µM (active); GI50 [2]: 0.0685 µM (active); GI50 [3]: 0.115 µM (active); GI50 [4]: 0.0502 µM (active); GI50 [5]: > 50 µM (inactive); GI50 [7]: 0.353 µM (active); GI50 [8]: 0.129 µM (active); GI50 [9]: 0.493 µM (active); GI50 [10]: 3.59 µM (inactive); GI50 [11]: < 0.005 µM (active); GI50 [12]: < 0.005 µM (active); GI50 [13]: 0.0126 µM (active); GI50 [14]: 0.0473 µM (active); GI50 [15]: 0.481 µM (active); GI50 [16]: 0.226 µM (active); GI50 [17]: 0.169 µM (active); GI50 [18]: < 0.005 µM (active); GI50 [19]: 2.36 µM (inactive); GI50 [20]: < 0.005 µM (active)

CCCCCCCCCc1cc(=O)c2c(O)cc(O)cc2o1 was tested. Which GI50 [1] did it give?
The GI50 was 4.91 µM (inactive).

What about the GI50 [2] of the same compound?
Its GI50 is > 100 µM (inactive).

What about the GI50 [3] of the same compound?
Its GI50 is 28.6 µM (inactive).

What about the GI50 [4] of the same compound?
The GI50 was 18.5 µM (inactive).

What about the GI50 [5] of the same compound?
The GI50 was 27.9 µM (inactive).

And the GI50 [6]?
Its GI50 is 18.7 µM (inactive).

What about the GI50 [7] of the same compound?
Its GI50 is 18.1 µM (inactive).

What about the GI50 [8] of the same compound?
Its GI50 is 27.2 µM (inactive).

And the GI50 [9]?
The GI50 was 18.8 µM (inactive).

And the GI50 [10]?
Its GI50 is 6.67 µM (inactive).

And the GI50 [11]?
Its GI50 is 21.8 µM (inactive).

And the GI50 [12]?
The GI50 was 19 µM (inactive).

What about the GI50 [13] of the same compound?
Its GI50 is 14.3 µM (inactive).

And the GI50 [14]?
Its GI50 is 22.2 µM (inactive).

And the GI50 [15]?
The GI50 was 19.1 µM (inactive).

And the GI50 [16]?
The GI50 was 17.1 µM (inactive).

And the GI50 [17]?
The GI50 was 18.9 µM (inactive).

What about the GI50 [18] of the same compound?
Its GI50 is > 100 µM (inactive).

What about the GI50 [19] of the same compound?
Its GI50 is 10.2 µM (inactive).
